A short description of data set [1]: Caco-2 Permeability Assay. The class given is in vitro ADME, human. As to conditions: human, Caco-2, pH 7.4, Caco-2 monolayer. In short, it runs like this:
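Caco-2 monolayers cultured 21 days (TEER >600 […]); test article at 10 μM in HBSS/HEPES pH 7.4 transport medium, dosed apical or basolateral, ±Pgp inhibitor. Incubated 90 min at 37 °C; both compartments quantified by LC-MS/MS. Papp (A→B, B→A), efflux ratio and % recovery calculated.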

Data set [2] in a line: Stability in Simulated Gastric Fluid (SGF). The class given is in vitro ADME. Also noted: key: % parent compound remaining relative to 0-minute sample. Conditions: % remaining at 1 h in simulated gastric fluid. In short, it runs like this:
(§1)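 Stability was tested at 37° C in pepsin-supplemented gastric fluid, pH 1.2, and pancreatin-supplemented intestinal fluid, pH 6.8, using 2 μg/mL final compound over 0–60 minutes. Remaining parent was quantified by LC-MS/MS and expressed as a percentage of time zero.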

Data set [3] can be described thus: Stability in Simulated Intestinal Fluid (SIF). In kind it is in vitro ADME. Also noted: key: % parent compound remaining relative to 0-minute sample. Conditions: % remaining at 1 h in simulated intestinal fluid. The method in brief:
as §1

A further data set can be described thus: Plasma Stability. As to conditions: % remaining at 1 h in human plasma. The class given is in vitro ADME, human. The method in brief: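 Compounds incubated at 1 μM in fresh human plasma for 1 hour at 37° C, then protein-precipitated with acetonitrile/formic acid containing internal standard. Remaining parent measured by LC-MS/MS in triplicate, expressed as percent of control remaining.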

`CC(C)OCCn1c(=S)[nH]c(=O)c2c1ccn2COC(=O)CCCCNC(=O)[C@H](Cc1c[nH]c2ccccc12)NC(=O)OC(C)(C)C.O=C(O)C(F)(F)F` [Example 47] had a Papp at 90 min, 10 µM in data set [1] of 9.15 ×10⁻⁶ cm/s. The SGF in data set [2] is given as 99% remaining. In addition, in data set [3], the SIF was 46% remaining. Besides, in “Plasma Stability”, the “human Plasma stability” value amounted to 78% remaining.
The matching figures for `CC(C)OCCn1c(=S)[nH]c(=O)c2c1ccn2COC(=O)CCNC(=O)[C@H](Cc1c[nH]c2ccccc12)NC(=O)OC(C)(C)C.O=C(O)C(F)(F)F` [Example 48]: 5.93 ×10⁻⁶ cm/s, 90% remaining, 89% remaining and 74% remaining.
Take `CC(C)OCCn1c(=S)[nH]c(=O)c2c1ccn2COC(=O)CCCCNC(=O)[C@@H](N)Cc1ccc(O)cc1.O=C(O)C(F)(F)F` [Example 49]: the Papp at 90 min, 10 µM in data set [1] was 0.154 ×10⁻⁶ cm/s. In addition, the SGF in data set [2] is 99% remaining. Further, the SIF in data set [3] was 92% remaining. Moreover, the “human Plasma stability” value in “Plasma Stability” turned out to be 1% remaining.
In data set [1], `CC(C)OCCn1c(=S)[nH]c(=O)c2c1ccn2COC(=O)CCNC(=O)[C@@H](N)Cc1ccc(O)cc1.O=C(O)C(F)(F)F` [Example 50] yielded a Papp at 90 min, 10 µM of 0.215 ×10⁻⁶ cm/s. Moreover, the SGF in data set [2] is reported as 99% remaining. Besides, the SIF in data set [3] was 75% remaining. In addition, the “human Plasma stability” value in the data set “Plasma Stability” came out at 25% remaining.
The matching figures for `CC(C)OCCn1c(=S)[nH]c(=O)c2c1ccn2COC(=O)CCCCNC(=O)[C@@H](N)Cc1c[nH]c2ccccc12.O=C(O)C(F)(F)F` [Example 51]: 0.519 ×10⁻⁶ cm/s, 94% remaining, 83% remaining and 2% remaining.
The matching figures for `CC(C)OCCn1c(=S)[nH]c(=O)c2c1ccn2COC(=O)CCNC(=O)[C@@H](N)Cc1c[nH]c2ccccc12.O=C(O)C(F)(F)F` [Example 52]: 0.23 ×10⁻⁶ cm/s, 95% remaining, 81% remaining and 61% remaining.
Consider `CC(C)OCCn1c(=S)[nH]c(=O)c2c1ccn2COC(=O)CCCCNC(=O)CN(C)C(=O)OC(C)(C)C.O=C(O)C(F)(F)F` [Example 53], for which the apparent permeability (Papp) at 90 min, 10 µM in data set [1] came out at 3.43 ×10⁻⁶ cm/s. In data set [2], the SGF is given as 92% remaining. In addition, in data set [3], the SIF is given as 98% remaining. Besides, in “Plasma Stability”, the “human Plasma stability” value is on record as 0% remaining.
The matching figures for `CC(C)OCCn1c(=S)[nH]c(=O)c2c1ccn2COC(=O)CCNC(=O)CN(C)C(=O)OC(C)(C)C.O=C(O)C(F)(F)F` [Example 54]: 3.14 ×10⁻⁶ cm/s, 93% remaining, 87% remaining and 74% remaining.
In the case of `CNCC(=O)NCCCCC(=O)OCn1ccc2c1c(=O)[nH]c(=S)n2CCOC(C)C.O=C(O)C(F)(F)F` [Example 55], in data set [1], the Papp at 90 min, 10 µM was 0.244 ×10⁻⁶ cm/s. The SGF in data set [2] is 100%. In data set [3], the SIF is recorded as 98% remaining. In addition, in “Plasma Stability”, the “human Plasma stability” value turned out to be 1% remaining.
Take `CNCC(=O)NCCC(=O)OCn1ccc2c1c(=O)[nH]c(=S)n2CCOC(C)C.O=C(O)C(F)(F)F` [Example 56]: the apparent permeability coefficient (Papp) at 90 min, 10 µM in data set [1] stood at 0.144 ×10⁻⁶ cm/s. In addition, the SGF in data set [2] is 64% remaining. Also, the SIF in data set [3] is 1% remaining. In the data set “Plasma Stability”, the “human Plasma stability” value is listed as 0% remaining.
The matching figures for `CC(C)OCCn1c(=S)[nH]c(=O)c2c1ccn2COC(=O)CCCCNC(=O)CN(C)C(=O)CNC(=O)OC(C)(C)C.O=C(O)C(F)(F)F` [Example 57]: 0.28 ×10⁻⁶ cm/s, 81% remaining, 96% remaining and 0% remaining.
The matching figures for `CC(C)OCCn1c(=S)[nH]c(=O)c2c1ccn2COC(=O)CCNC(=O)CN(C)C(=O)CNC(=O)OC(C)(C)C.O=C(O)C(F)(F)F` [Example 58]: 0.287 ×10⁻⁶ cm/s, 77% remaining, 84% remaining and 49% remaining.
The matching figures for `CC(C)OCCn1c(=S)[nH]c(=O)c2c1ccn2COC(=O)CCCCNC(=O)CN(C)C(=O)CN.O=C(O)C(F)(F)F` [Example 59]: less than 0.254 ×10⁻⁶ cm/s, 95% remaining, 98% remaining and 11% remaining.
`COC(=O)N1CCCC1C(=O)NCCC(=O)OCn1ccc2c1c(=O)[nH]c(=S)n2CCOC(C)C.O=C(O)C(F)(F)F` (stereo not drawn) [Example 60] displayed a Papp at 90 min, 10 µM in data set [1] of 0.611 ×10⁻⁶ cm/s. For the same compound, the SGF in data set [2] is given as 99% remaining. In data set [3], the SIF is reported as 88% remaining. Further, in the data set “Plasma Stability”, the “human Plasma stability” value turned out to be 37% remaining.
As to `COC(=O)N1CCCC1C(=O)NCCCCC(=O)OCn1ccc2c1c(=O)[nH]c(=S)n2CCOC(C)C.O=C(O)C(F)(F)F` (stereo not drawn) [Example 61], in data set [1], the Papp at 90 min, 10 µM was 0.971 ×10⁻⁶ cm/s. Also, the SGF in data set [2] is recorded as 98% remaining. Further, the SIF in data set [3] is recorded as 92% remaining. The “human Plasma stability” value in the data set “Plasma Stability” came to 0% remaining.
The matching figures for `CC(C)OCCn1c(=S)[nH]c(=O)c2c1ccn2COC(=O)CCNC(=O)[C@@H]1CCCN1C(N)=O.O=C(O)C(F)(F)F` [Example 62]: 0.162 ×10⁻⁶ cm/s, 99% remaining, 99% remaining and 91% remaining.
The matching figures for `CC(C)OCCn1c(=S)[nH]c(=O)c2c1ccn2COC(=O)CCCCNC(=O)[C@@H]1CCC(=O)N1C.O=C(O)C(F)(F)F` [Example 63]: 0.2 ×10⁻⁶ cm/s, 97% remaining, 98% remaining and 0% remaining.
The matching figures for `CC(C)OCCn1c(=S)[nH]c(=O)c2c1ccn2COC(=O)CCNC(=O)[C@@H]1CCC(=O)N1C.O=C(O)C(F)(F)F` [Example 64]: less than 0.19 ×10⁻⁶ cm/s, 98% remaining, 97% remaining and 76% remaining.
As to `CCOC(=O)N1CCCC1C(=O)NCCCCC(=O)OCn1ccc2c1c(=O)[nH]c(=S)n2CCOC(C)C.O=C(O)C(F)(F)F` (stereo not drawn) [Example 65], in data set [1], the Papp at 90 min, 10 µM was determined as 1.86 ×10⁻⁶ cm/s. Moreover, the SGF in data set [2] is 87% remaining. Besides, the SIF in data set [3] is listed as 89% remaining. Also, the “human Plasma stability” value in the data set “Plasma Stability” came out at 20% remaining.
Regarding `CCOC(=O)N1CCCC1C(=O)NCCC(=O)OCn1ccc2c1c(=O)[nH]c(=S)n2CCOC(C)C.O=C(O)C(F)(F)F` (stereo not drawn) [Example 66], in data set [1], the Papp at 90 min, 10 µM was 0.736 ×10⁻⁶ cm/s. Further, the SGF in data set [2] is recorded as 96% remaining. Moreover, the SIF in data set [3] is listed as 80% remaining. Also, in the data set “Plasma Stability”, the “human Plasma stability” value is recorded as 75% remaining.
In data set [1], `CC(C)OCCn1c(=S)[nH]c(=O)c2c1ccn2COC(=O)CCCCNC(=O)C1CCCN1C(=O)OC(C)C.O=C(O)C(F)(F)F` (stereo not drawn) [Example 67] came in with a Papp at 90 min, 10 µM of 2.84 ×10⁻⁶ cm/s. For the same compound, in data set [2], the SGF is 92% remaining. Moreover, the SIF in data set [3] is on record as 93% remaining. In addition, the “human Plasma stability” value in “Plasma Stability” was found to be 57% remaining.

As a reminder, the Papp is the rate of passage across a membrane or cell layer, normalised by area and donor concentration.
